In general, IC50 refers to the point on the concentration scale where inhibition reaches its midpoint. A lower IC50 goes with higher potency.

Series [1] concerns the target T1, Human platelet cyclic AMP phosphodiesterase (PDE-3) (Homo sapiens, UniProt Q14432).
T1 construct: Human platelet cyclic AMP phosphodiesterase was prepared; from tissue; host or cells: human platelets
In words: cAMP PDE-3 inhibitory activity assay. The class given is biochemical. Conditions: 10 minutes at 30° C., n=3 per concentration. How it is done: Human platelet cyclic AMP phosphodiesterase was prepared according to the method of Alvarez et al. (Mol. Pharmacol. 1986, 29, 554). The PDE incubation medium contained 10 mM Tris-HCl buffer, pH 7.7, 10 mM MgSO4, and 1 μM […] (0.2 μCi) in a total volume of 1.0 mL. Test compounds were dissolved in dimethyl sulfoxide (DMSO) immediately prior to addition to the incubation medium, and the resulting mixture was allowed to stand for 10 minutes prior to the addition of enzyme. Following the addition of PDE, the contents were mixed and incubated for 10 minutes at 30° C. Three assays each were performed for each of five test compound concentrations, the mean of the determinations (n=3) at each concentration was plotted, and IC50 values were determined graphically.

The subject of series [2] is guinea pig papillary muscle. Briefly: Contraction-relaxation in guinea pig papillary muscle. The series is classed as cell-based. As to conditions: FIG. 1. How it is done: Male guinea pigs (400–500 g) were killed by cervical dislocation and the hearts were quickly removed, immersed in ice-cold, and oxygenated in Kreb's solution containing 113.1 mM NaCl, 4.6 mM KCl, 2.45 mM CaCl2, 1.2 mM MgCl2, […], and 10.0 mM glucose; pH 7.4 with 95% O2–5% CO2. The ventricles were opened and papillary muscles were removed with chordae tandineae and a base of surrounding tissue intact. The tendinous ends of the muscles were ligated with silk thread, and the muscles were mounted in vertical, double-jacketed organ baths containing 10 mL of oxygenated Kreb's solution kept at 37° C. […]
Following a 45-minute equilibration period under a 1 gram tension, control contractions were elicited by stimulating the muscle using stainless steel field electrodes at a frequency of 1.0 Hz, 2.0 ms duration. […] Control contraction-relaxation cycles were recorded for 30 seconds continuously. […] A series of washout contractions was recorded following a change of solution. When the amplitude of contraction returned to that measured in control conditions, a single concentration of positive control was then tested on the tissue in the same manner as Compound 5 and milrinone.
Contraction amplitude as well as the time courses of contraction and relaxation were quantified. […]

Series [3] concerns paced dog model of congestive heart failure. In words: Paced dog model of congestive heart failure. The series is classed as in vivo. Conditions: for ventricular tachycardia: all tested dosages. As for the experimental part:
Compound 8 was evaluated in a paced dog model of congestive heart failure. Pacing-induced heart failure in the dog produces alterations in heart physiology and molecular signaling similar to what is seen in the failing human heart, making this an appropriate model to test compounds that can potentially improve calcium homeostasis and heart failure physiology. Heart failure was induced by increasing the heart rate to 220–240 beats per minute (bpm) for a six week period. The degree of heart failure was documented by both pressure measurements and echocardiogram (changes in contractility, ejection fraction, ventricular relaxation, fractional area shortening, isovolumic relaxation time). Compound 8 or the milrinone were administered following the induction of heart failure.

SMILES strings stand for the structures. “And” between values parts separate entries of the source, which are not always exact repeats. Identical values can stand only once.

T1 sequence (Q14432 whole entry): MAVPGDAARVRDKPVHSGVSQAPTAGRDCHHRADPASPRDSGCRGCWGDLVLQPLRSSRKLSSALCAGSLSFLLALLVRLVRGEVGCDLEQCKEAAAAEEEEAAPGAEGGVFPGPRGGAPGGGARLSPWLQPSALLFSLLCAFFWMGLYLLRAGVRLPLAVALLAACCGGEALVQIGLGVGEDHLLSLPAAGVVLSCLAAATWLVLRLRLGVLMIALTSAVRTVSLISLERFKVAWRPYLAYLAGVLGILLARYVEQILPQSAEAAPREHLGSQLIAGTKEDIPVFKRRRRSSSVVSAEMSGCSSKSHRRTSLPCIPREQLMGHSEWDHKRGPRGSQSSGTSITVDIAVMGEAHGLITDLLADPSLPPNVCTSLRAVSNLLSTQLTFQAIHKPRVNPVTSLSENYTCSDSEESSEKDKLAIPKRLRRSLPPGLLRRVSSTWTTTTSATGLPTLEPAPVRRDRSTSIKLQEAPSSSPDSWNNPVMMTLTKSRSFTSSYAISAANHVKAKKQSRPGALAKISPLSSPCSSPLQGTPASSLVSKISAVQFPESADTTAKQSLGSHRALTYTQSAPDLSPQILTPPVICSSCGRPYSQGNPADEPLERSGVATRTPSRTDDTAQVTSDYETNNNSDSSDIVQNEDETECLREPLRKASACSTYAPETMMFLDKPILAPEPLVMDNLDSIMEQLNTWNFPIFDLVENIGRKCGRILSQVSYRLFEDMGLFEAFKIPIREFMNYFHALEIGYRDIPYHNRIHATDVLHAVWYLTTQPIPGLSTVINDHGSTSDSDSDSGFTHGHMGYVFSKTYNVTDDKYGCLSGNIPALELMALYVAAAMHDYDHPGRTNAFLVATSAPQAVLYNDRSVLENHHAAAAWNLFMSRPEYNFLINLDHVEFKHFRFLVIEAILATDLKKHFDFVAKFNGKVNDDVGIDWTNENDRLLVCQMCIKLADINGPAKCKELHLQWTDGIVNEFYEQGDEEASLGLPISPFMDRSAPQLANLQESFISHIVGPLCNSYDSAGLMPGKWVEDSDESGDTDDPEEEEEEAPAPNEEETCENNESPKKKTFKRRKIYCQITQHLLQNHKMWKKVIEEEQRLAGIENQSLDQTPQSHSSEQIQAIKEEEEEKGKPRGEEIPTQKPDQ

Consider `CCOC(=O)C1=C(COCCNC(=O)CCCOc2ccc3[nH]c(=O)ccc3c2)NC(C)=C(C(=O)OC)C1c1ccccc1Cl` (stereo not drawn) [Compound 5, methyl 4-(2-chlorophenyl)-5-(ethoxycarbonyl)-2-methyl-6-({2-[4-(2-oxo(6-hydroquinolyloxy))butanoylamino]ethoxy}methyl)-1,4-dihydropyridine-3-carboxylate], for which half-maximal inhibition in series [1] (IC50) required 300 nM. Moreover, in series [2] (cumulative concentrations, stimulated at 1.0 Hz), the “inotropic effect (muscle contractility)” value is given as “positive inotropic effect (increase in muscle contractility) in a dose-dependent manner”. The “maximum increase in contractility compared with milrinone” value in series [2] (guinea pig papillary muscle) was “less than the maximum increase produced by milrinone”.
With `COC(=O)C1=C(C)NC(COCCNC(=O)CCCOc2ccc3[nH]c(=O)ccc3c2)=C(C(=O)OC)C1c1ccccc1[N+](=O)[O-]` (stereo not drawn) [Compound 6, methyl 5-(methoxycarbonyl)-2-methyl-4-(2-nitrophenyl)-6-({2-[4-(2-oxo(6-hydroquinolyloxy))butanoylamino]ethoxy}methyl)-1,4-dihydropyridine-3-carboxylate], the IC50 in series [1] is 270 nM and 110 nM.
Turning to `COC(=O)C1=C(C)NC(COCCCOc2ccc3[nH]c(=O)ccc3c2)=C(C(=O)OC)C1c1ccccc1Cl` (stereo not drawn) [Compound 7, methyl 4-(2-chlorophenyl)-5-(methoxycarbonyl)-2-methyl-6-{[3-(2-oxo(6-hydroquinolyloxy))propoxy]methyl}-1,4-dihydropyridine-3-carboxylate], in series [1], the IC50 was 340 nM and 420 nM.
In series [1], `COC(=O)C1=C(C)NC(COCCNC(=O)COc2ccc(C3=NNC(=O)CC3)cc2Cl)=C(C(=O)OC)C1c1ccccc1Cl` (stereo not drawn) [Compound 8, methyl 6-[(2-{2-[2-chloro-4-(6-oxo(1,4,5-trihydropyridazin-3-yl))phenoxy]acetylamino}ethoxy)methyl]-4-(2-chlorophenyl)-5-(methoxycarbonyl)-2-methyl-1,4-dihydropyridine-3-carboxylate] had an IC50 of 80 nM. Moreover, in series [3] (% of that produced by milrinone, FIG. 2), the “contractility (dp/dt max) and ejection fraction, maximal increase relative to that produced by milrinone” value was 53–61%. Besides, the “ventricular relaxation (dp/dt min, Tau and isovolumic relaxation time), maximal increase relative to that produced by milrinone” value in series [3] (% of that produced by milrinone, FIG. 3) is 63–88%. The “contractility (dp/dt max) and ejection fraction” value in series [3] (dogs in heart failure, FIG. 2) is recorded as “dose-dependent response”. In addition, the “ventricular relaxation (dp/dt min, Tau and isovolumic relaxation time)” value in series [3] (dogs in heart failure, FIG. 3) is given as “increased ventricular relaxation in a dose-dependent manner”. In addition, the ventricular tachycardia result in series [3] (dogs in heart failure) is “no ventricular tachycardia”. Moreover, the “in vivo inhibition of PDE-3 and calcium channel antagonism” value in series [3] (systemic administration, dogs in heart failure) is “demonstrated in vivo inhibition of PDE-3 and calcium channel antagonism”. In series [3] (under acute conditions), the QT prolongation entry is given as “no apparent QT prolongation”.
Compound `CCOC(=O)C1=C(COCCNC(=O)COc2ccc(C3=NNC(=O)CC3)cc2Cl)NC(C)=C(C(=O)OC)C1c1ccccc1Cl` (stereo not drawn) [Compound 9, methyl 6-[(2-{2-[2-chloro-4-(6-oxo(1,4,5-trihydropyridazin-3-yl))phenoxy]acetylamino}ethoxy)methyl]-4-(2-chlorophenyl)-5-(ethoxycarbonyl)-2-methyl-1,4-dihydropyridine-3-carboxylate] came in with an IC50 in series [1] of 48 nM.
On the same count and under the same terms, as for `COC(=O)C1=C(C)NC(COCCNC(=O)CCCOc2ccc3[nH]c(=O)ccc3c2)=C(C(=O)OC)C1c1ccccc1Cl` (stereo not drawn) [Compound 10, methyl 4-(2-chlorophenyl)-5-(methoxycarbonyl)-2-methyl-6-({2-[4-(2-oxo(6-hydroquinolyloxy))butanoylamino]ethoxy}methyl)-1,4-dihydropyridine-3-carboxylate], the figure is 270 nM.
For `CCOC(=O)C1=C(COCCNC(=O)COc2ccc3[nH]c(=O)ccc3c2)NC(C)=C(C(=O)OC)C1c1ccccc1Cl` (stereo not drawn) [Compound 11, methyl 4-(2-chlorophenyl)-5-(ethoxycarbonyl)-2-methyl-6-({2-[2-(2-oxo(6-hydroquinolyloxy))acetylamino]ethoxy}methyl)-1,4-dihydropyridine-3-carboxylate], the IC50 in series [1] turned out to be 100 nM.
Same read-out and setting: as for `COC(=O)C1=C(C)NC(COCCNC(=O)COc2ccc3[nH]c(=O)ccc3c2)=C(C(=O)OC)C1c1ccccc1Cl` (stereo not drawn) [Compound 12, methyl 4-(2-chlorophenyl)-5-(methoxycarbonyl)-2-methyl-6-({2-[2-(2-oxo(6-hydroquinolyloxy))acetylamino]ethoxy}methyl)-1,4-dihydropyridine-3-carboxylate], the figure is 240 nM.
`Cc1[nH]c(=O)c(C#N)cc1-c1ccncc1` [milrinone, reference compound]: the ventricular tachycardia result in series [3] (dogs in heart failure) is listed as “demonstrated ventricular tachycardia”.

The record behind these values is patent US7098211B2, “Compounds having simultaneous ability to block L-type calcium channels and to inhibit phosphodiesterase type 3 activity” (Artesian Therapeutics, Inc., priority 2002, dated 2006).
